This series has as its target ATP-dependent translocase ABCB1 (Homo sapiens, UniProt P08183). Put plainly: TP_TRANSPORTER: binding in plasma membranes from CEM/VLB1.0 cells.

Chain of ATP-dependent translocase ABCB1 (P08183 whole entry): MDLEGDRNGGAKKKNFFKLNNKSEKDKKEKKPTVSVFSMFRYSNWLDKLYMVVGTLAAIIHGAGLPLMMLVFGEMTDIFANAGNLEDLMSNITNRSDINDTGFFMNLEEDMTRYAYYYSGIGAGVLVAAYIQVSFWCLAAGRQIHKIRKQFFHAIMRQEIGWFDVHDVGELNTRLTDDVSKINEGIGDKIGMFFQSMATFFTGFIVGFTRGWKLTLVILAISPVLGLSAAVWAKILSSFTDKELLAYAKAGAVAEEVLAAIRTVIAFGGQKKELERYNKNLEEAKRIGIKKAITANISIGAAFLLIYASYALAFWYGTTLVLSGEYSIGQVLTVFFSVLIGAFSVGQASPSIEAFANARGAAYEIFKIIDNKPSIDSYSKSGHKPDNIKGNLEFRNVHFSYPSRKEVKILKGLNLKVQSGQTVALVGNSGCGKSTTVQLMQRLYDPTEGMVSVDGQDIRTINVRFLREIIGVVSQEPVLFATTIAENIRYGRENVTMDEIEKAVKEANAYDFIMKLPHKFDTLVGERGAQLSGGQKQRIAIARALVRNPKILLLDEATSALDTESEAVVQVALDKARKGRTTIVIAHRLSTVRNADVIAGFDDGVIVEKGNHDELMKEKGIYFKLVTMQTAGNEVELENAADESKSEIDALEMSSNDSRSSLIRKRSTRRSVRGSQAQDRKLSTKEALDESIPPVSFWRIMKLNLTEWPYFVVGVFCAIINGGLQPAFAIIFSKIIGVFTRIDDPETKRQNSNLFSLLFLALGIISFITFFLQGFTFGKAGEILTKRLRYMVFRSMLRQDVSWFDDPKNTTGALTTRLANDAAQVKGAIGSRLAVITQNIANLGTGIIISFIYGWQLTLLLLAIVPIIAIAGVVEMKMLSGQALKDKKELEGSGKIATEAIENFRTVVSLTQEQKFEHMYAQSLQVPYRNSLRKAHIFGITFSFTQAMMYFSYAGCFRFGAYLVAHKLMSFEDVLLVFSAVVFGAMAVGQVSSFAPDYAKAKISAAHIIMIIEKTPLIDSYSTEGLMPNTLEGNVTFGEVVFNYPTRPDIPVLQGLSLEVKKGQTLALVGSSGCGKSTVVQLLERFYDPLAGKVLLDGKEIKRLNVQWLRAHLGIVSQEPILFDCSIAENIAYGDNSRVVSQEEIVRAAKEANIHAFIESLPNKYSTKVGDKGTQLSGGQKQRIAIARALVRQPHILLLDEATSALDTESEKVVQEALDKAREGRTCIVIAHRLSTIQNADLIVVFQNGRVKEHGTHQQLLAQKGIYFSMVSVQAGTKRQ

By Kd is commonly meant the equilibrium constant for the complex coming apart. Read a high Kd as a looser complex. On to `CC[C@H](C)[C@H]1O[C@]2(CC[C@@H]1C)C[C@@H]1C[C@@H](C/C=C(\C)[C@@H](O[C@H]3C[C@H](OC)[C@@H](O[C@H]4C[C@H](OC)[C@@H](O)[C@H](C)O4)[C@H](C)O3)[C@@H](C)/C=C/C=C3\CO[C@@H]4[C@H](O)C(C)=C[C@@H](C(=O)O1)[C@]34O)O2` [ABAMECTIN], for which the affinity, expressed as Kd, was 11 nM.
